Measurements as given in patent US20020026053A1, “Novel 3-(substituted) -2- indolinones compounds and use thereof as inhibitors of protein kinase activity” (priority 1997, published 2002).

The compounds below were run on FLK-1 receptor (assay: FLK-1 Assay (cellular/catalytic ELISA, VEGF-stimulated phosphotyrosine)).
Assay type: cell-based
Design: concentration or dose not given beside the values
Outline: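 Receptor phosphotyrosine ELISA: Flk-1-expressing NIH3T3 C7#3 cells, starved overnight in 0.1% FBS medium, received compound (1:200 final dilution, 0.5% DMSO) for 2 h at 37 °C, then VEGF. Anti-FLK-1-captured receptor was probed with anti-phosphotyrosine UB40 and peroxidase/ABTS read-out, relative to cells without compound.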

SMILES | Flk Kinase % Inhibition (P.110) [%]
Cc1c(Br)cc(Br)c2c1C(=Cc1ccc([N+](=O)[O-])o1)C(=O)N2 [10718/H11] | 13.0
O=C1Nc2ccc(S(=O)(=O)N3CCOCC3)cc2C1=Cc1cc(F)cc(F)c1 [10735/F04] | 16.4
Cc1c(Br)cc(Br)c2c1C(=Cc1cccc(F)c1O)C(=O)N2 [10734/H08] | −2.2
O=C1Nc2ccc(S(=O)(=O)Nc3ccc(C(F)(F)F)cc3)cc2C1=Cc1ccc(-c2ccccc2)cc1 [10735/E11] | 21.9
Cc1c(Br)cc(Br)c2c1C(=Cc1cc(Br)cc(Br)c1O)C(=O)N2 [10734/H07] | 1.4
O=C1Nc2ccc(S(=O)(=O)N3CCOCC3)cc2C1=Cc1cccc2ccccc12 [10735/F09] | 40.2
CNS(=O)(=O)c1ccc2c(c1)C(=Cc1ccc(F)c(F)c1)C(=O)N2 [10735/D03] | 4.5
Cc1c(Br)ccc2c1C(=Cc1ccc(Cl)cc1Cl)C(=O)N2 [10735/C10] | 21.0
O=C1Nc2ccc(S(=O)(=O)Nc3ccc(C(F)(F)F)cc3)cc2C1=Cc1cccc(C(F)(F)F)c1 [10735/E05] | 14.7
O=C1Nc2ccc(CCCl)cc2C1=Cc1cc(F)cc(F)c1 [10735/G04] | 15.6
O=C1Nc2c(Br)cc(Br)cc2C1=Cc1cc(C(F)(F)F)cc(C(F)(F)F)c1 [10735/A06] | −8.5
COc1ccc(C=C2C(=O)Nc3c(Br)cc(Br)c(C)c32)c(OC)c1 [10719/H04] | 3.4
O=C1Nc2c(Br)cc(Br)cc2C1=Cc1ccc(Cl)cc1Cl [10735/A10] | 2.2
N#Cc1ccccc1C=C1C(=O)Nc2ccc(I)cc21 [10735/B07] | −5.9
CCc1c(C)[nH]c(C=C2C(=O)Nc3c(Br)cc(Br)c(C)c32)c1C [10719/H05] | 18.5
O=C1Nc2ccc(S(=O)(=O)N3CCOCC3)cc2C1=Cc1ccc(F)c(F)c1 [10735/F03] | 11.0
O=C1Nc2ccc(I)cc2C1=Cc1ccc(-c2ccccc2)cc1 [10735/B11] | 15.7
O=C1Nc2c(Br)cc(Br)cc2C1=Cc1cc(F)cc(F)c1 [10735/A04] | −20.8
Cc1c(O)ccc(C=C2C(=O)Nc3c(Br)cc(Br)c(C)c32)c1O [10718/H09] | −5.0
O=C1Nc2ccc(I)cc2C1=Cc1ccc(F)c(F)c1 [10735/B03] | −14.3
N#Cc1ccccc1C=C1C(=O)Nc2ccc(S(=O)(=O)Nc3ccc(C(F)(F)F)cc3)cc21 [10735/E07] | 16.1
N#Cc1ccccc1C=C1C(=O)Nc2c(Br)cc(Br)cc21 [10735/A07] | −1.3
O=C1Nc2ccc(I)cc2C1=Cc1c(F)cccc1F [10735/B08] | 1.6
Cc1c(Br)ccc2c1C(=Cc1c(F)cccc1F)C(=O)N2 [10735/C08] | 10.1
O=C1Nc2ccc(S(=O)(=O)Nc3ccc(C(F)(F)F)cc3)cc2C1=Cc1cccc2ccccc12 [10735/E09] | 29.6
Cc1c(Br)cc(Br)c2c1C(=Cc1ccc([N+](=O)[O-])cc1)C(=O)N2 [10734/H06] | 2.6
CNS(=O)(=O)c1ccc2c(c1)C(=Cc1cccc3ccccc13)C(=O)N2 [10735/D09] | 22.6

SMILES | Flk Kinase % Inhibition (P.110) [%]
Cc1c(Br)ccc2c1C(=Cc1cc(C(F)(F)F)cc(C(F)(F)F)c1)C(=O)N2 [10735/C06] | 18.2
O=C1Nc2c(Br)cc(Br)cc2C1=Cc1cccc2ccccc12 [10735/A09] | −6.3
CNS(=O)(=O)c1ccc2c(c1)C(=Cc1cc(F)cc(F)c1)C(=O)N2 [10735/D04] | 9.1
O=C1Nc2ccc(I)cc2C1=Cc1cccc(C(F)(F)F)c1 [10735/B05] | 7.4
CNS(=O)(=O)c1ccc2c(c1)C(=Cc1cc(C(F)(F)F)cc(C(F)(F)F)c1)C(=O)N2 [10735/D06] | 16.2
O=C1Nc2ccc(CCCl)cc2C1=Cc1ccc(F)c(F)c1 [10735/G03] | 6.8
O=C1Nc2ccc(S(=O)(=O)Nc3ccc(C(F)(F)F)cc3)cc2C1=Cc1cc(F)cc(F)c1 [10735/E04] | 12.2
O=C1Nc2ccc(I)cc2C1=Cc1cc(C(F)(F)F)cc(C(F)(F)F)c1 [10735/B06] | 17.5
Cc1ccccc1C=C1C(=O)Nc2ccc(S(=O)(=O)Nc3ccc(C(F)(F)F)cc3)cc21 [10735/E02] | −2.0
Cc1c(Br)ccc2c1C(=Cc1cccc3ccccc13)C(=O)N2 [10735/C09] | 24.5
O=C1Nc2ccc(S(=O)(=O)Nc3ccc(C(F)(F)F)cc3)cc2C1=Cc1c(F)cccc1F [10735/E08] | 14.4
CNS(=O)(=O)c1ccc2c(c1)C(=Cc1ccccc1C)C(=O)N2 [10735/D02] | 0.9
Cc1c(Br)cc(Br)c2c1C(=Cc1ccc(O)c(O)c1)C(=O)N2 [10719/H03] | −40.4
CNS(=O)(=O)c1ccc2c(c1)C(=Cc1ccccc1C#N)C(=O)N2 [10735/D07] | 21.6
Cc1c(Br)ccc2c1C(=Cc1ccc(-c3ccccc3)cc1)C(=O)N2 [10735/C11] | 18.6
O=C1Nc2c(Br)cc(Br)cc2C1=Cc1ccc(-c2ccccc2)cc1 [10735/A11] | 2.2
O=C1Nc2ccc(S(=O)(=O)N3CCOCC3)cc2C1=Cc1ccc(-c2ccccc2)cc1 [10735/F11] | 34.6
O=C1Nc2ccc(CCCl)cc2C1=Cc1cc(C(F)(F)F)cc(C(F)(F)F)c1 [10735/G06] | 18.5
CNS(=O)(=O)c1ccc2c(c1)C(=Cc1ccc(Cl)cc1Cl)C(=O)N2 [10735/D10] | 15.1
Cc1ccccc1C=C1C(=O)Nc2c(Br)cc(Br)cc21 [10735/A02] | −13.4
Cc1c(Br)cc(Br)c2c1C(=Cc1ccco1)C(=O)N2 [10718/H10] | 1.4
O=C1Nc2ccc(S(=O)(=O)Nc3ccc(C(F)(F)F)cc3)cc2C1=Cc1ccc(Cl)cc1Cl [10735/E10] | 10.2
N#Cc1ccccc1C=C1C(=O)Nc2ccc(S(=O)(=O)N3CCOCC3)cc21 [10735/F07] | 34.0
O=C1Nc2ccc(S(=O)(=O)N3CCOCC3)cc2C1=Cc1cc(C(F)(F)F)cc(C(F)(F)F)c1 [10735/F06] | 16.7
CNS(=O)(=O)c1ccc2c(c1)C(=Cc1c(F)cccc1F)C(=O)N2 [10735/D08] | 21.6
O=C1Nc2c(Br)cc(Br)cc2C1=Cc1cccc(C(F)(F)F)c1 [10735/A05] | −12.2
Cc1c(Br)ccc2c1C(=Cc1ccccc1C#N)C(=O)N2 [10735/C07] | 9.6

SMILES | Flk Kinase % Inhibition (P.110) [%]
O=C1Nc2ccc(I)cc2C1=Cc1cccc2ccccc12 [10735/B09] | 15.9
O=C1Nc2ccc(I)cc2C1=Cc1ccc(Cl)cc1Cl [10735/B10] | 9.2
Cc1ccccc1C=C1C(=O)Nc2ccc(S(=O)(=O)N3CCOCC3)cc21 [10735/F02] | 2.1
O=C1Nc2ccc(I)cc2C1=Cc1cc(F)cc(F)c1 [10735/B04] | 6.1
Cc1c(Br)cc(Br)c2c1C(=Cc1ccc(Br)s1)C(=O)N2 [10734/H11] | 9.9
O=C1Nc2c(Br)cc(Br)cc2C1=Cc1ccc(F)c(F)c1 [10735/A03] | −1.0
O=C1Nc2ccc(S(=O)(=O)N3CCOCC3)cc2C1=Cc1cccc(C(F)(F)F)c1 [10735/F05] | 30.2
CCOc1ccc(C=C2C(=O)Nc3c(Br)cc(Br)c(C)c32)cc1OC [10719/H02] | 22.0
CNS(=O)(=O)c1ccc2c(c1)C(=Cc1cccc(C(F)(F)F)c1)C(=O)N2 [10735/D05] | 29.5
O=C1Nc2ccc(S(=O)(=O)Nc3ccc(C(F)(F)F)cc3)cc2C1=Cc1cc(C(F)(F)F)cc(C(F)(F)F)c1 [10735/E06] | 23.8
CCN(CC)c1ccc(C=C2C(=O)Nc3c(Br)cc(Br)c(C)c32)c(O)c1 [10734/H05] | 1.6
CNS(=O)(=O)c1ccc2c(c1)C(=Cc1ccc(-c3ccccc3)cc1)C(=O)N2 [10735/D11] | 25.1
Cc1ccccc1C=C1C(=O)Nc2ccc(Br)c(C)c21 [10735/C02] | 0.1
Cc1ccccc1C=C1C(=O)Nc2ccc(I)cc21 [10735/B02] | 1.1
O=C1Nc2ccc(S(=O)(=O)N3CCOCC3)cc2C1=Cc1c(F)cccc1F [10735/F08] | 10.7
Cc1ccccc1C=C1C(=O)Nc2ccc(CCCl)cc21 [10735/G02] | 5.1
O=C1Nc2ccc(S(=O)(=O)N3CCOCC3)cc2C1=Cc1ccc(Cl)cc1Cl [10735/F10] | 40.0
Cc1c(Br)cc(Br)c2c1C(=Cc1ccc(C(C)(C)C)cc1)C(=O)N2 [10734/H10] | 3.9
Cc1c(Br)ccc2c1C(=Cc1cc(F)cc(F)c1)C(=O)N2 [10735/C04] | 17.2
O=C1Nc2ccc(S(=O)(=O)Nc3ccc(C(F)(F)F)cc3)cc2C1=Cc1ccc(F)c(F)c1 [10735/E03] | 5.1
Cc1c(Br)cc(Br)c2c1C(=Cc1ccc(O)c(Br)c1)C(=O)N2 [10734/H09] | −2.2
COc1cc(OC)c(C=C2C(=O)Nc3c(Br)cc(Br)c(C)c32)c(OC)c1 [10719/H06] | 17.8
O=C1Nc2c(Br)cc(Br)cc2C1=Cc1c(F)cccc1F [10735/A08] | −19.6
O=C1Nc2ccc(CCCl)cc2C1=Cc1cccc(C(F)(F)F)c1 [10735/G05] | 8.8
Cc1c(Br)ccc2c1C(=Cc1ccc(F)c(F)c1)C(=O)N2 [10735/C03] | 0.9
